Reference: US8846747B2, “Compounds and methods for altering lifespan of eukaryotic organisms” (University of Rochester, priority 2009, dated 2014)
pEC50: −log10 of the molar value.

How the values were obtained:
DeaD strain BB579 = experiment: yeast Death of Daughters (DeaD) lifespan assay, reversal of nicotinamide (NAM) lifespan shortening; format: cell-based, S. cerevisiae (yeast); conditions: for fold induction at 0.125 µM / pEC50: Saccharomyces cerevisiae; for fold induction at 0.125 µM: BB579, compound 125 nM; for fold induction at 0.125 µM / average improvement, 0.5 to 100 nM: fold improvement in DeaD lifespan; for fold induction at 0.125 µM / average improvement, 250 nM to 1μM / average improvement, 0.5 to 100 nM: 0.75 mM NAM; for average improvement, 250 nM to 1μM: fold improvement in DeaD lifespan (OD600 at 60 h normalized to no drug control), compound 250 nM to 1μM; for pEC50: BB579, read-out: C50 (concentration that yields half the maximal activity) by DeaD assay; for average improvement, 0.5 to 100 nM: compound 0.5 to 100 nM
Protocol: The C50 (50% maximal activity) is a measure of the efficacy of a compound as a LAC and is determined by quantifying the dose-response curve for each LAC by DeaD assay in the presence and absence of nicotinamide. The C50 is the concentration of LAC that yields half the maximal activity. Dose response curves will generally peak and then decline. The decline is most likely due to toxicity at higher LAC concentrations. The C50 is determined relative to the maximal lifespan extension (the peak value). C50 values are provided for C1-5.
The compounds listed in Table 1 of Example 3 were assessed for their anti-aging activities using the yeast Death of Daughters (DeaD) explicative lifespan assay. Specifically, the compounds were assessed for their capacity to reverse the lifespan shortening effect of exogenous nicotinamide (NAM), which is a known inhibitor of the anti-aging protein Sir2p (Anderson et al., 2003; Bitterman et al., 2002). These compounds were compared to the activities of known cluster 1 compounds, S3-5, and #3-11.
“Activity” here is defined herein as the fold improvement in DeaD lifespan in the presence of 0.75 mM NAM relative to lifespan in the absence of cluster 1 compounds, over a range of compound concentrations between 0.5 nm-1 μm. This “activity” value is a means of assessing the usefulness of a compound as a LAC. The assays were performed as follows. DeaD strain BB579 was grown overnight in a permissive (galactose-containing) medium to mid-log phase, and then diluted to an OD600 of 0.0001 in restrictive (glucose-containing) medium with 0.75 mM NAM and the compound to be tested. Cells were then incubated at 30° C. for 3 days, with shaking and OD600 measurement every 20 minutes. The OD600 reading after 60 hours in restrictive medium, normalized to the same measurement for the “no drug” control, was used as the number for comparison.
Five of the compounds with higher activity than S3-5 were selected for further study and were designated C1-1, C1-2, C1-3, C1-4, and C1-5 (see Table 2, Example 4). All data in FIGS. 1A(1)-(6) are from media containing 0.75 mM NAM. Note the different ranges of the X axes in FIGS. 1A(1)-(6)—very different C50 values for the compounds of the present invention compared the known C1 cluster compounds. […] All five had C50 values below 50 nM, while the C50 value for S3-5 was about 650 nM, and the C50 for S1-9 was about 350 nM.

[1] = system: strain FY839 (healthy wild-type); experiment: Toxicity of compounds by yeast growth assay; format: cell-based; conditions: FY839, inset in FIG. 2
Protocol: The toxicity of compounds C1-1, C1-2, C1-3, C1-4, and C1-5 in yeast was assessed by determining their effects on growth of a wild-type yeast strain. FIG. 2 is a graphical representation of the toxicity data. The yeast used was strain FY839 (healthy wild-type) growing in SCD. At 12 hours all were in log phase. […] This concentration is many-fold higher than the effective concentrations of these compounds as assessed by DeaD lifespan assays.

RAW 264.7 cells = experiment: LPS-induced TNF-α secretion from RAW 264.7 cells (ELISA); format: cell-based, murine; conditions: compound 1 micromolar, LPS 10 ng/ml for 6 hrs; FIG. 3
Protocol: FIG. 3. […] To obtain the data summarized in FIG. 3, RAW […] cells were incubated with Scrims (compounds of present invention) (1 uM), PI3K inhibitor positive control (LY-294002; 25 uM) or vehicle (DMSO) for 1 hr. LPS (10 ng/ml) was added to the medium. 6 hrs post LPS administration medium was collected and analyzed for TNFa levels using ELISA.
In vitro anti-inflammatory activity in RAW 264.7 cells (murine leukaemic monocyte macrophage cell line): Lipopolysaccharide (LPS)-induced secretion of cytokines from RAW cells is a recognized in vitro assay for anti-inflammatory drugs. The anti-inflammatory activities of C1-1, C1-2, C1-3, C1-4, and C1-5 in the RAW cell model. RAW cells exposed to LPS were incubated with each of the five molecules at 1 micromolar concentration. The PIK3 inhibitor LY-294002 was used at 25 micromolar as a positive control. […] LPS was administered at 10 ng/ml for 6-hrs. TNF-α levels were quantified by ELISA assay. Results are presented as % of control with standard deviations of three replicates.

Structure (SMILES)	fold induction at 0.125 µM (DeaD strain BB579)	average improvement, 250 nM to 1μM (DeaD strain BB579)	further results
CC(=O)C1C(=O)CC(c2ccc(Cl)cc2Cl)CC1=O (centres unmarked) [compound 22840]	2.24	1.87	–
CCCCC1CC(=O)C(C(C)=O)C(=O)C1 (centres unmarked) [SRI# 22942, 1,3-cyclohexanedione, 2-acetyl-5-butyl-]	–	–	pEC50 (DeaD strain BB579): > 7.30; toxic effects on growth at concentrations below 1 μM [1]: little or no toxic effects on growth; reduction of secreted TNF-α relative to vehicle treated cells (RAW 264.7 cells): exhibited anti-inflammatory activity
COc1cc(OC)c(C2CC(=O)C(C(=O)C3CC3)C(=O)C2)c(OC)c1 (centres unmarked) [compound 22821]	1.27	1.62	–
CC(=O)C1C(=O)CC(c2cn(C)c3ccccc23)CC1=O (centres unmarked) [compound 22939]	–	1.60	–
CCCCCCC1CC(=O)C(C(C)=O)C(=O)C1 (centres unmarked) [compound 22926]	0.99	1.87	–
CCCC(=O)C1C(=O)CC(c2cn(C)c3ccccc23)CC1=O (centres unmarked) [compound 22947]	–	1.64	–
O=C1CC(c2cccs2)CC(=O)C1C(=O)C1CC1 (centres unmarked) [compound 22897]	1.25	1.85	–
CC(C)C(=O)C1C(=O)CC(c2ccccc2)CC1=O (centres unmarked) [compound 22880]	1.49	1.59	–
CCCCCCC1CC(=O)C(C(=O)CC)C(=O)C1 (centres unmarked) [compound 22927]	–	1.43	–
CCCCC1CC(=O)C(C(C)=O)C(=O)C1 (centres unmarked) [compound 22942]	2.87	2.49	average improvement, 0.5 to 100 nM (DeaD strain BB579): 1.71
CCC(=O)C1C(=O)CC(c2cccs2)CC1=O (centres unmarked) [compound 22930]	2.21	2.33	–
O=C1CC(c2ccc(F)cc2)CC(=O)C1C(=O)C1CC1 (centres unmarked) [compound 22835]	2.48	2.21	–
CCC(=O)C1C(=O)CC(c2ccco2)CC1=O (centres unmarked) [compound 22791]	1.77	2.15	–
CCC(=O)C1C(=O)CC(c2ccc(F)cc2)CC1=O (centres unmarked) [compound 22790]	2.85	2.64	average improvement, 0.5 to 100 nM (DeaD strain BB579): 1.37
CC(=O)C1C(=O)CC(c2cccs2)CC1=O (centres unmarked) [compound 22933]	2.71	2.55	average improvement, 0.5 to 100 nM (DeaD strain BB579): 1.70
O=C1CC(c2ccccc2)CC(=O)C1C(=O)C1CC1 (centres unmarked) [compound 22878]	2.62	2.11	–
CC(C)C(=O)C1C(=O)CC(c2ccc(Cl)cc2Cl)CC1=O (centres unmarked) [compound 22890]	–	1.46	–
CC(C)C(=O)C1C(=O)CC(c2ccc(F)cc2)CC1=O (centres unmarked) [compound 22837]	–	1.72	–
CCC(=O)C1C(=O)CC(C2CCCCC2)CC1=O (centres unmarked) [SRI# 22788, 1,3-cyclohexanedione, 2-propanoyl-5-cyclohexyl-]	–	–	pEC50 (DeaD strain BB579): > 7.30; toxic effects on growth at concentrations below 1 μM [1]: little or no toxic effects on growth; reduction of secreted TNF-α relative to vehicle treated cells (RAW 264.7 cells): exhibited anti-inflammatory activity
CCC(=O)C1C(=O)CC(c2c(F)cccc2Cl)CC1=O (centres unmarked) [compound 22789]	2.61	2.62	average improvement, 0.5 to 100 nM (DeaD strain BB579): 1.30
CCC(=O)C1C(=O)CC(C2CCCCC2)CC1=O (centres unmarked) [compound 22788]	3.4	2.74	average improvement, 0.5 to 100 nM (DeaD strain BB579): 1.75
